Measured values: ChEMBL document CHEMBL1275422, “Cerebrospinal fluid compartmental pharmacokinetics of amikacin in neonates” (Antimicrob Agents Chemother, 2008)

What was measured:
[1] = Drug uptake in human neonate CSF after 25 hrs by HPLC; type: ADME, organism-based, Cerebrospinal fluid
[2] = Cmin in human neonate serum after 25 hrs by fluorescence polarization immunoassay; type: ADME; conditions: read-out: Cmin
[3] = Cmax in human neonate serum after 25 hrs by fluorescence polarization immunoassay; type: ADME, organism-based
[4] = Drug uptake in human adult CSF at 75 mg, im up to 8.5 hrs by HPLC; type: ADME, organism-based, Cerebrospinal fluid; design: dose 75 mg, route intramuscular
[5] = Cmax in human neonate at 10 mg/kg, iv by HPLC; type: ADME, organism-based; design: dose 10 mg/kg, route intravenous; conditions: in vivo

Compound `NCC[C@H](O)C(=O)N[C@@H]1C[C@H](N)[C@@H](O[C@H]2O[C@H](CN)[C@@H](O)[C@H](O)[C@H]2O)[C@H](O)[C@H]1O[C@H]1O[C@H](CO)[C@@H](O)[C@H](N)[C@H]1O` [AMIKACIN] has a Cmax [1] of 1080 ng/mL, a concentration at 25 h [2] of 3800 ng/mL and a Cmax [3] of 35700 ng/mL. The Cmax [4] was under 500 ng/mL and the Cmax [5] was under 200 ng/mL.
